# Measured values reported in patent US7981939B2, “Application of 2-bromide-isovanillin for the manufacture of a medicament for anti-cancer or/and radiation/chemotherapy sensitization” (Institute of Radiation Medicine, Academy of Military …, priority 2005, dated 2011).
# Experiments:
# [1] = test system: lung cancer cell line A549; assay: Clonogenic assay, 6 days of continuous action, A549; type: cell-based
# Description: (§1) Human cervical cancer cell line HeLa, human liver cancer cell line HepG2/7221/7402, human ovarian cancer cell line HOC8/A2780, human glioma cell line BT325, lung cancer cell line A549, brain metastatic lung cancer cell line BT72 and normal human hepatic cell line LO2 were all grown in DMEM liquid medium supplemented with 10% newborn calf serum. Human leukemia cell line Jurkat was grown in 1640 medium supplemented with 10% newborn calf serum. The above cell lines were cultured in a CO2 incubator at 5% CO2 at 37° C.
# (§2) By way of example, human cervical cancer cell line HeLa, lung cancer cell line A549, and ovarian cancer cell lines A2780 and HOC8 were used to determine the killing of cancer cells by 2-bromo-isovanillin for 6 days. Specifically, four groups were formed according to the type of the cancer cells. The cancer cells were diluted as appropriate, and were respectively plated into Petri dishes with a diameter of […], the amount of the cells adjusted depending on the concentration of 2-bromo-isovanillin to be added. Once adherence was achieved, each cell type received dosages of 0, 5, 10, 15, 20, 25, 30 and 35 μmol/L in triplicates. After 6 days of continuous action, the medium was replaced by a drug-free DMEM liquid medium. […] Then the cell clones were counted. The experimental data were expressed as the mean of 2-4 experiments and were plotted as a growth curve of cancer cells.
# [2] = test system: c-myc protein; assay: c-myc protein expression by Western immunoblotting, HeLa; type: cell-based, human; conditions: 40 μmol/L, 0-24 hrs, decrease more remarkable with time
# Description: The expression level of c-myc protein in human cervical cancer cell line HeLa treated with 2-bromo-isovanillin was determined by Western immunoblotting. In the Western blotting, the mouse anti-human c-myc protein monoclonal antibody SC-40 (purchased from Santa Cruz) was used as the primary antibody, and the goat anti-mouse antibody IgG-HRP (purchased from Zhongshan Reagent Co.) was used as the secondary antibody. Total proteins from human cervical cancer cells HeLa treated with 40 μmol/L 2-bromo-isovanillin for 0, 4, 8, 12, 24 hrs were extracted according to conventional methods, quantified and subjected to SDS-PAGE electrophoresis, followed by transferring to a membrane and immunoblotting, using β-actin as control.
# [3] = test system: prostate cancer cell line IB-4; assay: G2/M arrest by flow cytometry, IB-4; type: cell-based; conditions: IB-4, 40 μmol/L, 24 hrs
# Description: (§3) By way of example, human liver cancer cell lines HepG2 and 7402, human ovarian cancer cell lines HOC8 and A2780, human glioma cell line BT325, lung cancer cell line A549, brain metastatic lung cancer cell line BT72 and prostate cancer cell line IB-4 were used to investigate the G2/M arresting of solid tumor cells of different tissue origins by 2-bromo-isovanillin as measured by the ratio of cells at G2/M phase. Specifically, the cancer cells were divided into two groups, and were treated with 0 or 40 μmol/L 2-bromo-isovanillin for 24 hours. Then the cells were harvested and analyzed for changes in cell cycle and cell apoptosis by flow cytometry.
# [4] = test system: human cervical cancer cell line HeLa; assay: MTT assay, proliferation of HeLa cells; type: cell-based
# Description: as §1
# By way of example, human cervical cancer cell line HeLa was used to study the effect of vanillin on the proliferation of cancer cells by MTT assay. Specifically, human cervical cancer cells HeLa were seeded into a 96-well plate at a density of 5×10^3 cells/well, and were divided into four groups. To each of the groups vanillin was added at a concentration of 0, 100, 250 or 500 μmol/L, respectively, and was allowed to grow for 4 days. Using the MTT assay, the optical density (OD) values at 490 nm were measured and recorded every day, wherein the OD value is indicative of the number of cells, i.e., the proliferation of cells.
# By way of example, human cervical cancer cell line HeLa was used to study the effect of several vanillin derivatives for 72 hrs on the proliferation of cancer cells by MTT assay. Specifically, human cervical cancer cells HeLa were seeded into a 96-well plate at a density of 5×10^3 cells/well, and were divided into four groups. To each of the groups were added increasing concentrations (0, 10, 20, 30, 40 μmol/L) of vanillin derivatives ethyl vanillin (Code No. VAND3206), 4-methoxy vanillin (Code No. VAND3207), isovanillin (Code No. VAND3209) and 2-bromo-isovanillin (Code No. VAND3208), and the cells were cultured for 72 hrs. Using the MTT assay, the optical density (OD) values at 490 nm were measured and recorded every day, wherein the OD value is indicative of the number of cells, i.e., the proliferation of cells.
# By way of example, human cervical cancer cell line HeLa was used to study the inhibitory effect of 2-bromo-isovanillin at different concentrations for different periods of time on the proliferation of cancer cells by MTT assay. Specifically, human cervical cancer cells HeLa were seeded into a 96-well plate at a density of 5×10^3 cells/well, and were divided into […]. To each of the groups 2-bromo-isovanillin was added at a concentration of 0, 10, 20, 30, 40 or 50 μmol/L, and was cultured for 14 days, respectively. Using the MTT assay, the optical density (OD) values at 490 nm were measured and recorded every day, wherein the OD value is indicative of the number of cells, i.e., the proliferation of cells.
# [5] = test system: ovarian cancer cell line HOC8; assay: Clonogenic assay, 6 days of continuous action, HOC8; type: cell-based, human
# Description: as §1, §2
# [6] = test system: human liver cancer cell line HepG2; assay: G2/M arrest and apoptosis by flow cytometry, HepG2; type: cell-based; conditions: HepG2, 40 μmol/L
# Description: as §3
# 2. In a separate experiment, the cell cycle profile and apoptosis rate of human liver cancer cell line HepG2 treated with 40 μmol/L 2-bromo-isovanillin for different periods of time (0-50 h) were studied, and the results are shown in FIGS. 7A and 7B (1, 2, 3, 4 respectively represent the apoptosis results for treatment with 40 μmol/L 2-bromo-isovanillin for 0, 8, 16, 24 hrs).
# [7] = test system: leukemia cell line Jurkat; assay: Apoptosis in Jurkat cells (Hoechst 33258/FDA staining, DNA gel electrophoresis, flow cytometry); type: cell-based, human
# Description: as §1
# 3. Using the same procedure as described under items 1 and 2, the leukemia cells Jurkat were diluted, and plated into Petri dishes with a diameter of […], the amount of the cells adjusted depending on the concentration of 2-bromo-isovanillin to be added. Once adherence was achieved, the cells received dosages of 0, 10, 20, 30 and 40 μmol/L in triplicates. After 24 hrs of continuous action, the medium was replaced by a drug-free 1640 medium supplemented with 10% newborn calf serum. The cells were cultured for a total of 2 weeks. At the end of the culturing period, the cells were subjected to Hoechst 33258 and FDA double fluorescence staining and the results were plotted as an apoptosis curve, as shown in FIG. 4A.
structure (smiles),measurement,setting,value
"COc1ccc(C=O)c(Br)c1O [2-bromo-isovanillin, 2-bromo-3-hydroxy-4-methoxybenzaldehyde]",survival rate,"[1]; A549, 20 μmol/L",lower than 10%
same,proliferation,"[1]; A549, 30 μmol/L",completely inhibited
same,expression level of c-myc protein,[2],decreased
same,cell cycle effect,[3],arrested at G2/M phase
same,effect on the proliferation of HeLa cells,[4]; 20 μmol/L,remarkable inhibitory effect
same,effect on the proliferation of HeLa cells,[4]; 30 μmol/L or above for 4 days,completely lost their proliferative capabilities
same,effect on the proliferation of HeLa cells,"[4]; concentrations of less than 40 μmol/L, up to 72 hrs",significant inhibition
same,survival rate,"[5]; HOC8, 20 μmol/L",lower than 10%
same,proliferation,"[5]; HOC8, 30 μmol/L",completely inhibited
same,treatment time after which obvious G2/M arrest began to appear,[6],4 h
same,treatment time of peak G2/M arrest,[6],8 to 16 h
same,cell cycle effect,[6]; 24 hrs,arrested at G2/M phase
same,cell apoptosis,[6]; after 8 hrs of treatment,significantly increased
same,cells at G0/G1 phase,[6]; at the time of G2/M arrest,significantly decreased
same,apoptosis in Jurkat (flow cytometry),"[7]; 0, 20, 30 μmol/L, 24 hrs",significantly induced apoptosis
same,DNA gel electrophoresis finding,"[7]; Jurkat, 20, 30, 40 μmol/L, 2% agarose gel",DNA fragmentation bands characteristic of apoptosis
same,dose inducing necrosis or M phase catastrophic death,"[7]; Jurkat, 24 hrs, Hoechst 33258 and FDA double fluorescence staining",≥ 40 µmol/L
